Assay results as given in patent EP0721336B1, “BENZAZOLE COMPOUNDS FOR USE IN THERAPY” (CANCER RESEARCH CAMPAIGN TECHNOLOGY LIMITED, priority 1993, dated 1995).
Where a name gives a salt, the structure may show the parent alone. Read-outs that look alike come from different tables or passages of the source. Marks after values point to notes of the source that are not given here.

Key:
[1] = test system: MCF-7 mammary carcinoma cells; test: In vitro cytotoxicity assay (cell growth, propidium iodide fluorescence); format: cell-based, human
Excerpt: (§1) This is illustrated in Tables 1 and 2 at the end of the present description which show in vitro test results obtained in various sets of experiments for the cytotoxic activity of this compound CJM 126 against a range of human tumour cell lines, expressed in terms of IC50 values (concentration or dosage required to reduce cell growth or proliferation by 50%) calculated from dose-effect curves plotted for cultures of the cells in question.
(§2) In carrying out the above in vitro studies, the method used for conducting the cytotoxicity assays was generally substantially as follows: • Cells were maintained in a continuous logarithmic culture in Dulbecco's medium supplemented with 10% fetal calf serum and penicillin (100 IU/ml) and streptomycin (100 µg/ml). The cells were mildly trypsinized for passage and for use in assays. On day zero, 100µl of trypsinized tumour cells (1 x 10^4/ml) were plated in the wells of 96-well flat-bottom microtiter plates. […] On day two 50µl of the highest drug concentration was added to the wells of column 12 and from there serially diluted 3-fold to column 1 by serial transfer of 50µl using an 8-channel micropipette. The final volume of column 1 was adjusted to 100µl. No additions were made to the wells of rows A and B, which served as controls. The plates were further incubated for 5 days at 37°C and 5% CO2 in air. Each compound was tested in duplicate. • On day 7 the test was terminated by the addition of 100µl saline containing 0.002% w/v propidium iodide (Sigma), 0.3% drawing ink (Staedtler "Marsmatic 745" - Trade Mark) and 0.5% Triton X-100. The plates were kept at 4°C overnight before reading on an inverted microscope equipped with an automated scanning stage. Fluorescence intensity was measured in arbitrary units by a photomultiplier. An HP-87 computer controlled the movement of the stage and also collected and processed the data from the multiplier. • For each compound tested a dose-response curve was obtained and the IC50 value (the drug concentration at 50% inhibition of cell growth) was calculated.

[2] = test system: MCF 7-ADR mammary; test: In vitro cytotoxicity and growth stimulation assay; format: cell-based, human; conditions: for IC50: Homo sapiens, NCI/ADR-RES
Excerpt: as §1, §2

[3] = test system: BO (T61) human mammary carcinomas; test: In vivo activity against implanted BO tumour; set-up: species or system NMRI-nu/nu female mice
[4] = test system: MDA 468 mammary (ER-/EGFR+); test: In vitro cytotoxicity assay; format: cell-based, human
Excerpt: as §1, §2

[5] = test system: MCF-7 mammary carcinoma; test: In vivo activity against MCF-7 tumour implanted s.c.; conditions: i.v., 10 mg/kg/day, qd 6, 13, 20
[6] = Homo sapiens, MCF-wt, column A, read-out: MCF-wt A IC50 at sub-micromolar concentrations
[7] = Homo sapiens, MCF-wt, column B, read-out: MCF-wt B IC50 at >micromolar concentrations
[8] = Homo sapiens, column A, read-out: MDA 468 A IC50 at sub-micromolar concentrations
[9] = column B, read-out: MCF7-Adr B IC50 at >micromolar concentrations
[10] = Homo sapiens, column B, read-out: MDA 468 B IC50 at >micromolar concentrations
[11] = Homo sapiens, MDA 468 cells, values in text, read-out: IC50
[12] = Homo sapiens, MCF7, MCF 7-wt cells, values in text, read-out: IC50

## c1ccc2sc(-c3ccc(N4CCCC4)cc3)nc2c1 [Compound 93006, 2-[4-(Pyrrolidin-1-yl)phenyl]benzothiazole]
[1]; [6]
  IC50: 0.867 µM

## Nc1ccc(OS(=O)(=O)C(F)(F)F)c(-c2nc3ccccc3s2)c1 [Example XIV, 2-(3-Amino-6-trifluoromethylsulphonyloxyphenyl)benzothiazole]
[1]; Homo sapiens, MCF7, MCF-7 (wild type) cells, read-out: IC50
  IC50: 0.05 µM

## Nc1cccc(-c2nc3ccccc3s2)c1 [CJM 129, 2-(3-Aminophenyl)benzothiazole]
[2]; column A
  MCF7-Adr A IC50 at sub-micromolar concentrations: Inactive
[2]; column B
  MCF7-Adr B IC50 at >micromolar concentrations: Inactive
[1]; [7]
  IC50: > 10 µM
[3]; i.p., 2 mg/kg/day, qd 27,34,41
  BWC: 2
[3]; i.p., 2 mg/kg/day, qd 27,34,41, d33
  Relative tumour volume (T/C%): 127%
[3]; i.p., 2 mg/kg/day, qd 27,34,41, d41
  Relative tumour volume (T/C%): 91%
[3]; i.p., 2 mg/kg/day, qd 27,34,41, d47
  Relative tumour volume (T/C%): 94%
[3]; i.p., 2 mg/kg/day, qd 27,34,41, d55
  Relative tumour volume (T/C%): 95%
[3]; i.p., 2 mg/kg/day, qd 27,34,41, d61
  Relative tumour volume (T/C%): 78%
[3]; i.p., 20 mg/kg/day, qd 27,34,41
  BWC: -3
[3]; i.p., 20 mg/kg/day, qd 27,34,41, d33
  Relative tumour volume (T/C%): 88%
[3]; i.p., 20 mg/kg/day, qd 27,34,41, d41
  Relative tumour volume (T/C%): 77%
[3]; i.p., 20 mg/kg/day, qd 27,34,41, d47
  Relative tumour volume (T/C%): 54%
[3]; i.p., 20 mg/kg/day, qd 27,34,41, d55
  Relative tumour volume (T/C%): 73%
[3]; i.p., 20 mg/kg/day, qd 27,34,41, d61
  Relative tumour volume (T/C%): 48* %
[3]; i.p., 200 mg/kg/day, qd 27,34,41
  BWC: -6
[3]; i.p., 200 mg/kg/day, qd 27,34,41, d33
  Relative tumour volume (T/C%): 78* %
[3]; i.p., 200 mg/kg/day, qd 27,34,41, d41
  Relative tumour volume (T/C%): 45* %
[3]; i.p., 200 mg/kg/day, qd 27,34,41, d47
  Relative tumour volume (T/C%): 32* %
[3]; i.p., 200 mg/kg/day, qd 27,34,41, d55
  Relative tumour volume (T/C%): 33* %
[3]; i.p., 200 mg/kg/day, qd 27,34,41, d61
  Relative tumour volume (T/C%): 36* %

## Nc1ccc(-c2nc3ccccc3s2)c(Cl)c1 [Compound 93004, 2-(4-Amino-2-Chlorophenyl)benzothiazole]
[4]; [8]
  IC50: 0.003 µM
[1]; [6]
  IC50: 0.142 µM

## Nc1ccc(-c2nc3cc(O)cc(O)c3s2)cc1 [DF162Eb, 2-(4-Aminophenyl)-5,7-dihydroxybenzothiazole]
[2]; [9]
  IC50: 13.9 µM
[4]; [10]
  IC50: 16.3 µM
[1]; [7]
  IC50: 49.6 µM

## O=P1(N(CCCl)CCCl)NCCCO1 (stereo not drawn) [Cyclophosphamide, reference compound]
[3]; i.p., 150 mg/kg/day, qd 27
  BWC: -4
[3]; i.p., 150 mg/kg/day, qd 27, d33
  Relative tumour volume (T/C%): 117%
[3]; i.p., 150 mg/kg/day, qd 27, d41
  Relative tumour volume (T/C%): 27* %
[3]; i.p., 150 mg/kg/day, qd 27, d47
  Relative tumour volume (T/C%): 29* %
[3]; i.p., 150 mg/kg/day, qd 27, d55
  Relative tumour volume (T/C%): 19* %
[3]; i.p., 150 mg/kg/day, qd 27, d61
  Relative tumour volume (T/C%): 5* %

## Cc1ccc2nc(-c3ccc(N)cc3)sc2c1 [2-(4-aminophenyl)-6-methylbenzothiazole, reference compound]
[4]; [11]
  IC50: 0.4 µM
[1]; [12]
  IC50: 0.38 µM

## CCS(=O)(=O)O.Nc1ccc(-c2nc3ccccc3s2)cc1 [Compound 93003, Ethanesulphonic acid salt of 2-(4-aminophenyl)benzothiazole]
[2]; column C
  MCF7-Adr C Concentrations which stimulate cell growth: 3,10 µM
[4]; column A, read-out: MDA 468 A IC50 at sub-micromolar concentrations
  IC50: 0.0024 µM
[1]; MCF-wt, column A, read-out: MCF-wt A IC50 at sub-micromolar concentrations
  IC50: 0.0046 µM

## CC[C@]1(O)C[C@H]2CN(CCc3c([nH]c4ccccc34)[C@@](C(=O)OC)(c3cc4c(cc3OC)N(C=O)[C@H]3[C@@](O)(C(=O)OC)[C@H](OC(C)=O)[C@]5(CC)C=CCN6CC[C@]43[C@@H]65)C2)C1 [Vincristine, reference compound]
[3]; i.p., 1 mg/kg/day, qd 27
  BWC: -6
[3]; i.p., 1 mg/kg/day, qd 27, d33
  Relative tumour volume (T/C%): 142%
[3]; i.p., 1 mg/kg/day, qd 27, d41
  Relative tumour volume (T/C%): 62%
[3]; i.p., 1 mg/kg/day, qd 27, d47
  Relative tumour volume (T/C%): 61%
[3]; i.p., 1 mg/kg/day, qd 27, d55
  Relative tumour volume (T/C%): 61%
[3]; i.p., 1 mg/kg/day, qd 27, d61
  Relative tumour volume (T/C%): 57%

## COc1ccc2nc(-c3ccc(N)cc3)sc2c1 [Compound 93002, 2-(4-Aminophenyl)-6-methoxybenzothiazole]
[4]; [10]
  IC50: 7.64 µM
[1]; [6]
  IC50: 0.38 µM

## COc1cccc2sc(-c3ccc(N)cc3Cl)nc12 [Compound 93005, 2-(4-amino-2-chlorophenyl)-4-methoxybenzothiazole]
[2]; column A, read-out: MCF7-Adr A IC50 at sub-micromolar concentrations
  IC50: 0.0465 µM
[4]; [8]
  IC50: 0.0022 µM
[1]; [6]
  IC50: 0.063 µM

## COc1cc(OC)c2sc(-c3ccc(N)cc3)nc2c1 [DF162D, 2-(4-Aminophenyl)-5,7-dimethoxybenzothiazole]
[2]; [9]
  IC50: 20.9 µM
[4]; [8]
  IC50: 0.0035 µM
[1]; [7]
  IC50: 19.3 µM

## O=C1c2c(O)ccc(O)c2C(=O)c2c(NCCNCCO)ccc(NCCNCCO)c21 [Mitoxantrone, reference compound]
[5]; d9
  Relative tumour volume (T/C%): 52%
[5]; d13
  Relative tumour volume (T/C%): 32* %
[5]; d20
  Relative tumour volume (T/C%): 38* %
[5]; d27
  Relative tumour volume (T/C%): 26* %
[5]; d35
  Relative tumour volume (T/C%): 29* %
[5]; d43
  Relative tumour volume (T/C%): 29* %
[5]; relative to saline treated animals
  BWC (%): -10%
[3]; i.v., 10 mg/kg/day, qd 27
  BWC: -5
[3]; i.v., 10 mg/kg/day, qd 27, d33
  Relative tumour volume (T/C%): 58* %
[3]; i.v., 10 mg/kg/day, qd 27, d41
  Relative tumour volume (T/C%): 26* %
[3]; i.v., 10 mg/kg/day, qd 27, d47
  Relative tumour volume (T/C%): 6* %
[3]; i.v., 10 mg/kg/day, qd 27, d55
  Relative tumour volume (T/C%): 7* %
[3]; i.v., 10 mg/kg/day, qd 27, d61
  Relative tumour volume (T/C%): 4* %

## c1ccc2sc(-c3ccc(N4CCCCC4)cc3)nc2c1 [Compound 93007, 2-[4-(Piperidin-1-yl)phenyl]benzothiazole]
[1]; [7]
  IC50: 2.77 µM

## Nc1ccc(-c2nc3ccccc3s2)cc1 [Example IC, 2-(4-Aminophenyl)benzothiazole methanesulphonic acid salt]
[4]; [11]
  IC50: 0.0024 µM
[1]; [12]
  IC50: 0.0007 µM

## Nc1ccc(-c2nc3ccccc3o2)cc1 [DF140, 2-(4-Aminophenyl)benzoxazole]
[4]; [10]
  IC50: > 10 µM
[1]; [6]
  IC50: 0.11 µM

## c1ccc2sc(-c3ccc(N4CCOCC4)cc3)nc2c1 [Compound 93008, 2-[4-(Morpholin-4-yl)phenyl]benzothiazole]
[1]; [6]
  IC50: 0.16 µM
